Source: ChEMBL document CHEMBL1201862, “PubChem BioAssay data set” (2004)
Active and inactive are the calls of the source.

Tests used:
[1] = molecular target: T1, Corticotropin-releasing factor receptor 2/Corticotropin-releasing factor-binding protein (Homo sapiens, UniProt P24387+Q13324); test: activators of CRF receptor 2 with binding protein – uHTS hits, confirmation (AID 602473); type: functional; conditions: read-out: EC50_Mean
T1 sequence (Q13324 whole entry): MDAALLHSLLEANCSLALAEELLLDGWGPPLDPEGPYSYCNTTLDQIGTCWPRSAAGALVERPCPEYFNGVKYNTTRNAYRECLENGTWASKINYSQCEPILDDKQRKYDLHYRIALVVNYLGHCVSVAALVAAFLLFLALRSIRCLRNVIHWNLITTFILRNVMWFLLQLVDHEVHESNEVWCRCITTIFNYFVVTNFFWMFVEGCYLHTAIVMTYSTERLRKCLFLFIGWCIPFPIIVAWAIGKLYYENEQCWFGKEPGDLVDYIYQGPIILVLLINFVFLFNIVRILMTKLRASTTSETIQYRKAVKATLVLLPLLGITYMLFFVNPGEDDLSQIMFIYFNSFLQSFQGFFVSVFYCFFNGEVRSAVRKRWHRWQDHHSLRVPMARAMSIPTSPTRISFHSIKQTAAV
T1 sequence (P24387 whole entry): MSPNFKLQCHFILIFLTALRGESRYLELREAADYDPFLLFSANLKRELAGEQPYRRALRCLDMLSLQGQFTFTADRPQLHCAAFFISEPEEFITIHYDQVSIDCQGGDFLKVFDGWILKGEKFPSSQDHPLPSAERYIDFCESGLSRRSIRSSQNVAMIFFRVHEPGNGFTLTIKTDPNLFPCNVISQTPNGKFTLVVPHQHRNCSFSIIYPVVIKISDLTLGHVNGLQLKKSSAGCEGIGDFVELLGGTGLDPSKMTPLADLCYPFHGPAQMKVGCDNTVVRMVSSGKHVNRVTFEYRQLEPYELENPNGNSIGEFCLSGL

cells = type: functional
Protein skinhead-1 = molecular target: T2, Protein skinhead-1 (Caenorhabditis elegans, UniProt P34707); type: functional
T2 sequence (P34707 whole entry): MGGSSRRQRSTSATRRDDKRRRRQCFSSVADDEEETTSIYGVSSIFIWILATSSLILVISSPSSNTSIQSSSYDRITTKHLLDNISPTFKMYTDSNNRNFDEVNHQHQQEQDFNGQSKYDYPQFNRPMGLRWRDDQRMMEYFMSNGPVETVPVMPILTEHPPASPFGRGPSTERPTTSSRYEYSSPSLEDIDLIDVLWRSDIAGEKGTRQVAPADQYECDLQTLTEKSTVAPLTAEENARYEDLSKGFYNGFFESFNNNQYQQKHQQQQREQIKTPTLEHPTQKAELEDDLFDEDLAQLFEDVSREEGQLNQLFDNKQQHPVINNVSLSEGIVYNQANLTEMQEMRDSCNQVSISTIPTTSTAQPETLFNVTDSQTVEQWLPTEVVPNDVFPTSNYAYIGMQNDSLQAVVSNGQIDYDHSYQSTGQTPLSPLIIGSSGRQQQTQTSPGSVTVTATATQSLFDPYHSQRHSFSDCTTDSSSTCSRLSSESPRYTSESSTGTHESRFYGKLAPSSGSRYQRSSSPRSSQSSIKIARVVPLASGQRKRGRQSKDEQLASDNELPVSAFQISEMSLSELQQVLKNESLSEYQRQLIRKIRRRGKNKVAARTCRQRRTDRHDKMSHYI

[2] = molecular target: T3, Calpain-2 catalytic subunit (Sus scrofa, UniProt P43367); test: m-calpain protease blockers, concentration series – biochemical, fluorogenic peptide substrate, dose response (AID 1420); type: functional
T3 sequence (P43367 whole entry): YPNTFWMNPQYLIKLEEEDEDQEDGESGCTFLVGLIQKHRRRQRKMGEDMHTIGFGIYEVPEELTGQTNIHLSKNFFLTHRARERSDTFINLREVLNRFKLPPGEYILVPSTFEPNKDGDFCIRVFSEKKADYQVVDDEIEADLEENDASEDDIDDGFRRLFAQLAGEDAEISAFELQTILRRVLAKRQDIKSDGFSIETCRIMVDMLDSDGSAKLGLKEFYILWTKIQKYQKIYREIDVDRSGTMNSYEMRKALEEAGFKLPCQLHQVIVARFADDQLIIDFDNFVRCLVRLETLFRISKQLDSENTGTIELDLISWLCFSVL

Cytochrome P450 2D6 = Cytochrome P450 2D6 (Homo sapiens, UniProt P10635);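 also: CYP2D6 member of a cytochrome P450 panel assay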
Streptococcus = test: GAS UMAA2166 growth inhibition – luminescence, BacTiterGlo, counter-screen for streptokinase expression inhibitor project, dose response (AID 1915); type: functional, organism-based;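 also: potency for reduction of bacterial viability or growth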
[3] = system: Streptococcus sp. 'group A'; test: Streptococcus pyogenes SK(-)GAS viability under kanamycin – luminescence, BacTiterGlo, confirmation, counter-screen for streptokinase expression inhibitor project, dose response (AID 1900); type: functional, organism-based
[4] = molecular target: Luciferin 4-monooxygenase (Photinus pyralis, UniProt P08659); test: inhibition of purified Photinus pyralis luciferase – biochemical, luminescence, dose response (AID 1891)
[5] = Luminescence Cell-Based Dose Confirmation HTS to Identify Inhibitors of Platelet Dense Granule Release. [Related pubchem assays: 1663 (Primary HTS), 1678 (Summary of Project)]; type: functional
Cytochrome P450 3A4 = Cytochrome P450 3A4 (Homo sapiens, UniProt P08684);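 also: CYP3A4 tested as one member of a cytochrome P450 panel screen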
[6] = reduction of Shn3 3'UTR-driven luciferase in osteoblasts – cell-based, Clone20 osteoblasts, firefly luciferase, cherry-picked, dose response (AID 624132); type: functional;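 also: firefly luciferase luminescence from reporter carrying the Shn3 3'UTR in osteoblasts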

Sequence of Cytochrome P450 2D6 (P10635 whole entry): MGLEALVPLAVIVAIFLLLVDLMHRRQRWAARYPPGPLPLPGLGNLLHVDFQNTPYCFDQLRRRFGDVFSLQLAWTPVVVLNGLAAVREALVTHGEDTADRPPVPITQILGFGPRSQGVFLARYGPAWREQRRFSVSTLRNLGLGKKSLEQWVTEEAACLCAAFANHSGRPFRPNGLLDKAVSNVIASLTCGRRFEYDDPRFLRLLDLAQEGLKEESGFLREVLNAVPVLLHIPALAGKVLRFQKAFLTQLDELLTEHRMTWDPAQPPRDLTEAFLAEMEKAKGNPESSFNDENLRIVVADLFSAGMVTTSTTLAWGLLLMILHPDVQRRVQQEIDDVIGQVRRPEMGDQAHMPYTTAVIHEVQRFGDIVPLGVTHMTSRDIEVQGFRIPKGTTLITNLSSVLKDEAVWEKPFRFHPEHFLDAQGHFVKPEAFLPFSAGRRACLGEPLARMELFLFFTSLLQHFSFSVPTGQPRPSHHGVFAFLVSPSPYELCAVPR
Sequence of Luciferin 4-monooxygenase (P08659 whole entry): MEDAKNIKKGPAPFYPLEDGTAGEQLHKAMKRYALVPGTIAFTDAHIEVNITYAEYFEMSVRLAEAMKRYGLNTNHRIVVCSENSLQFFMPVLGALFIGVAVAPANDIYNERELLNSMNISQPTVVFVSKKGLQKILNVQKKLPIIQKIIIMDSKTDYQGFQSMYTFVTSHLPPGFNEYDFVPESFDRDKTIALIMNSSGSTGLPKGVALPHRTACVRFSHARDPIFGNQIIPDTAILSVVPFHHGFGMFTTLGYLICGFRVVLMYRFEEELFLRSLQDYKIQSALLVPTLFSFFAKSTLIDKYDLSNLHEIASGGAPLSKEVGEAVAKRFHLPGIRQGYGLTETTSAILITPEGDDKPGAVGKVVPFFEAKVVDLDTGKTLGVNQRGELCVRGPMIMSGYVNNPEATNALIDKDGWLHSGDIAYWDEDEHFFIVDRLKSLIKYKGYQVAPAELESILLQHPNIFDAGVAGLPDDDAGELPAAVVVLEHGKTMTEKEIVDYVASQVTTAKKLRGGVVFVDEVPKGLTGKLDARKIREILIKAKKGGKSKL
Sequence of Cytochrome P450 3A4 (P08684 whole entry): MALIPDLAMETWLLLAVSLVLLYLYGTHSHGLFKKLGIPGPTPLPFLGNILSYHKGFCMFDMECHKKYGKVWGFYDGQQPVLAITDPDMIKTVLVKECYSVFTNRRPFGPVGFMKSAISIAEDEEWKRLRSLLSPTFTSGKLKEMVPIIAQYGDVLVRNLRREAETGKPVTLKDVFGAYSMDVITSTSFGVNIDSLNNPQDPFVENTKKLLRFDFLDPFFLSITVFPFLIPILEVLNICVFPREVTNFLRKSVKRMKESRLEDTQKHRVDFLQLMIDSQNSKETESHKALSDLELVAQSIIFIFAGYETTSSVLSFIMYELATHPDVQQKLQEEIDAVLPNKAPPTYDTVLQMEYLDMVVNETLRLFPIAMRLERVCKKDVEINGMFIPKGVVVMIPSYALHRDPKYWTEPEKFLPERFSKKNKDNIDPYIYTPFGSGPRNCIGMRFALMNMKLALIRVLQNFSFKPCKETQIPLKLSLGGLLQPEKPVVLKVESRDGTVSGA

With `CSc1nnc(C)c(/C=C/Nc2ccc(C)cc2)n1` the EC50 [1] was 14.9 µM (active).
In the case of `Cc1ccc2nc(C)c3c(c2c1)COC3`, the IC50 (cells) is reported as > 50 µM (active).
In the case of `O=c1c2ccccc2ncn1-c1ccc(Cl)cc1Cl`, the IC50 (Protein skinhead-1) is reported as > 100 µM (inactive).
In the case of `CC(C)c1onc(C(=O)Nc2cccnc2Cl)c1[N+](=O)[O-]`, the IC50 [2] is reported as 22.5 µM (not active).
For `CN(C)c1ccc(-c2cncnc2NCc2cccs2)cc1`, the AC50 (Cytochrome P450 2D6) was 39.8 µM (inconclusive).
With `O=C(c1ccc(F)cc1)c1cc2ccc(O)cc2oc1=O` the EC50 (Streptococcus) was 15.7 µM (active), the EC50 [3] was 10.7 µM (active) and the EC50 [4] was 0.731 µM (active). The EC50 [5] was 0.457 µM (active).
In the case of `CCN(CC(=O)NCc1ccc(F)cc1)Cc1nc(O)c2ccc(Cl)cc2n1`, the IC50 (Protein skinhead-1) is reported as > 100 µM (inactive).
For `O=C(NC1CCCCC1)N1CCC(c2nc(-c3ccc(S(=O)(=O)N4CCCC4)cc3)no2)CC1`, the EC50 [4] was > 112 µM (not active) and the EC50 [5] was > 112 µM (not active).
For `CSc1nc2c(c(-c3ccc(O)cc3)c1C#N)CCC2`, the EC50 [4] was > 112 µM (not active) and the EC50 [5] was > 112 µM (not active).
For `CCCN1CCc2cccc3c2[C@@H]1Cc1ccc(O)c(O)c1-3`, the AC50 (Cytochrome P450 3A4) was 12.6 µM (inconclusive) and the AC50 (Cytochrome P450 2D6) was 10 µM (inconclusive).
In the case of `Cc1ccc(NC(=O)CSc2nsc(SCC(=O)Nc3ccc(C)cc3C)c2C#N)c(C)c1`, the IC50 [2] is reported as > 50 µM (not active).
With `Clc1ccc(CNc2ccc3nnc(-c4ccccc4)n3n2)cc1` the EC50 [4] was > 112 µM (not active) and the EC50 [5] was > 112 µM (not active).
With `O=C(N/N=C/c1cccnc1)c1ccc([N+](=O)[O-])cc1` the AC50 (Cytochrome P450 2D6) was 14.1 µM (inconclusive).
With `NS(=O)(=O)c1ccc(CCNC(=O)COC(=O)CCc2c[nH]c3ccccc23)cc1` the EC50 [1] was 22 µM (active).
For `Cc1ccccc1C(=O)NC(CC(C)C)C(=O)Nc1ccc(S(N)(=O)=O)cc1` (configuration not stated), the EC50 [4] was > 112 µM (not active) and the EC50 [5] was > 112 µM (not active).
For `O=C(CCN1CCC(c2ccccc2)C1)c1ccccc1` (configuration not stated), the IC50 (cells) was 31.7 µM (active).
For `Cc1ccc(C)c(N2CCN(S(=O)(=O)c3ccc4nc(O)ccc4c3)CC2)c1`, the AC50 [6] was 24.2 µM (active).
With `CCOc1ccc(Nc2ccc([N+](=O)[O-])c3nonc23)cc1` the IC50 (cells) was 5.59 µM (active) and the IC50 (Protein skinhead-1) was > 100 µM (inactive).
